Reference: patent US20230407296A1, “Method to Regulate ALOX12-AS1 IncRNA-Mediated Alteration of ALOX12 Protein and to Screen for Novel Drugs to Alter ALOX12 Protein Level” (priority 2021, published 2023)
d = 2'-deoxy (DNA); m = 2'-O-methyl

Tests used:
ALOX12 mRNA [1] = conditions: HepG2 cells; cited from earlier work
ALOX12-AS1-202 = ALOX12-AS1-202 level in ASO-transfected HEK293 cells (multiplex RT-PCR / qPCR); type: cell-based, human; conditions: HEK293, ALOX12-AS1-201-targeted ASO, 24 hours after transfection, quantitative PCR
Experimental: (§1) Small interfering RNA (siRNA)-mediated knockdown of ALOX12-AS1 in HEK293 cells was ineffective possibly because of the nuclear localization of the lncRNA. As an alternative approach, multiple isoform-specific oligonucleotides (ASOs) complementary to different regions of ALOX12-AS1-201/202 were designed (FIG. 7A-C).
(§2) Three ALOX12-AS1-202-specific ASOs were designed and two of them (ASO-2 and -3) reduced ALOX12-AS1-202 mRNA levels within 24 hours of transfection (FIGS. 7L&O, red rectangle).
(§3) Total RNA from different cell lines was extracted with Trizol reagent (Catalog number: 15596026; ThermoFisher Scientific, Canada) as per the manufacturer's recommended protocol. […] Absolute quantification of ALOX12-AS1 lncRNA isoforms was performed in a Mastercycler®ep realplex real-time PCR system (Eppendorf, Hamburg, Germany) using SYBR green dye (Catalog number: S7563; ThermoFisher Scientific). […] Real-time PCR data quality control calculations were determined by the SAS program as described previously and the calculated PCR efficiency was between 95%-99%. Quantitative RT-PCR was conducted for different cell-line derived RNAs, and the specificity of each amplified product was confirmed by melting curve analysis. Results were expressed as copy number of specific isoforms per 100 ng of total RNA.

ALOX12-AS1-201 = ALOX12-AS1-201 level in ASO-transfected HEK293 cells (multiplex RT-PCR / qPCR); type: cell-based, human
Experimental: as §1, §2, §3

ALOX12 mRNA [2] = test: ALOX12 mRNA level in HEK293 cells (multiplex RT-PCR / qPCR); type: cell-based, human
Source text: HEK293 cells were transiently transfected with plasmids expressing ALOX12-AS1-201/202 to study lncRNA-mediated suppression of ALOX12. […] The nucleo-cytoplasmic abundance of ALOX12-AS1 lncRNA may be tightly regulated in HEK293 cells. Therefore, increased transcription of the transfected plasmids in the nucleus may not ensure higher levels of the lncRNAs in the cytoplasm, which may be a requisite for suppression of ALOX12. To overcome this limitation, HEK293 cells were transfected with in vitro transcribed ALOX12-AS1-201/202 mRNAs to ensure high cytoplasmic abundance of the antisense lncRNAs. […]
as §3

[3] = tested on: ALOX12 protein level in HEK293 cells; test: ALOX12 protein level in HEK293 cells (immunoblot); type: cell-based, human
Experimental: Relative quantification of proteins was performed as described previously [35, 106]. The cell lysates were prepared in 1×RIPA lysis and extraction buffer (catalogue number: 89900, ThermoFisher Scientific) supplemented with 1× Halt protease and phosphatase inhibitor cocktail (catalogue number: 78441, ThermoFisher Scientific). The protein lysates were denatured in Laemmli buffer containing 2% SDS, 10% glycerol, 0.002% bromophenol blue, 0.75 M Tris-HCl pH 6.8, and 100 mM DTT. The immunoblots were imaged using a ChemiDoc XRS+ system (Bio-Rad) and band intensities were quantified using ImageJ (version 1.48) Software [107]. Due to the possibility of inconsistency in the relative expression of housekeeping genes, we normalized all proteins of interest based on the intensity of the Oriole-stained protein profile [92].

ALOX12 = target: T1, ALOX12 (Homo sapiens, UniProt P18054); conditions: cited from earlier work
T1 sequence (P18054 1-663): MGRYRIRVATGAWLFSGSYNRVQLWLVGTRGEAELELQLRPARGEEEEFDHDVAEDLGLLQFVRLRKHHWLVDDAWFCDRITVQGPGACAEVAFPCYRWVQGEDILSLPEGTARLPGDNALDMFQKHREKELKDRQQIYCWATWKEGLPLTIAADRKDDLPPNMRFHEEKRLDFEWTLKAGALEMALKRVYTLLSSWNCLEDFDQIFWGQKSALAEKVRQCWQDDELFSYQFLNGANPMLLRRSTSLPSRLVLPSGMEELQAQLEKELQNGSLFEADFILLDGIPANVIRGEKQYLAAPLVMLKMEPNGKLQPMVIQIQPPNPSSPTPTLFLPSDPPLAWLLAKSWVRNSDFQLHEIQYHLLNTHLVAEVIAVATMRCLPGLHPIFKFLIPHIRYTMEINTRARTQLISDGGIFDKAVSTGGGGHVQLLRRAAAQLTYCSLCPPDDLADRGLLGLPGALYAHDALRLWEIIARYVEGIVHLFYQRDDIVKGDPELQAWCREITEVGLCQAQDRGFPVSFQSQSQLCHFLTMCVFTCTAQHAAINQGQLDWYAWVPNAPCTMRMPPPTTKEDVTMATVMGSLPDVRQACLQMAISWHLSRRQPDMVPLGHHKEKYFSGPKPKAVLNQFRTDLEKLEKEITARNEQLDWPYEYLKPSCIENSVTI

Compound: CCCCCCCC/C=C/CCCCCCCC(=O)O [elaidic acid]
- reduction of ALOX12 mRNA expression (ALOX12 mRNA [1]): 1.8 fold

Compound: mA*mG*mA*mA*mC*T*G*T*C*A*A*T*A*A*T*mC*mU*mU*mA*mC (antisense AGAACTGTCAATAATCUUAC; sugars from the 5' end m5 d10 m5, all phosphorothioate, methylation of C not given here) [ASO-4, ALOX12-AS1-201-targeted gapmer ASO]
- ALOX12-AS1-202 isoform level (ALOX12-AS1-202): significant reduction
- ALOX12-AS1-201 isoform level (ALOX12-AS1-201; HEK293, 24 hours after transfection, quantitative PCR): significant reduction
- knockdown of ALOX12-AS1-201 (ALOX12-AS1-201; HEK293, ALOX12-AS1-201-targeted ASOs, within 24 hours of transfection, multiplex RT-PCR): ~27%
- ALOX12 mRNA level (ALOX12 mRNA [2]; HEK293, ALOX12-AS1-201-targeted ASO, 24 hours after transfection, quantitative PCR): unchanged
- ALOX12 mRNA levels (ALOX12 mRNA [2]; HEK293, ALOX12-AS1-201-targeted ASOs, multiplex RT-PCR): relatively unaltered
- ALOX12 protein level ([3]; HEK293, ALOX12-AS1-201-targeted ASO, 24 hours after transfection, quantified immunoblot): significantly reduced
- ALOX12 protein level ([3]; HEK293, ALOX12-AS1-201-targeted ASOs, immunoblot): dramatically reduced

Compound: O=c1cc(-c2ccccc2)oc2cc(O)c(O)c(O)c12 [baicalein, 5,6,7-Trihydroxyflavone]
- inhibition of ALOX12 (ALOX12): can be inhibited
- selectivity for ALOX12 over other ALOXs (ALOX12; inhibits other ALOXs): not selective for ALOX12
